The values that follow come from ChEMBL document CHEMBL4219081, “Discovery of 1,2,3,4-tetrahydropyrimido[1,2-a]benzimidazoles as novel class of corticotropin releasing factor 1 receptor antagonists” (Bioorg Med Chem, 2018).

Data set [1] in a line: Lipophilicity, log D of the compound at pH 7.4. It is filed as physicochemical. Conditions: buffer.
A short description of data set [2]: Solubility of the compound in JP2 buffer at pH 6.8 at 10 mmol/L. Type of data set: physicochemical.
The nature of data set [3]: Oral bioavailability in rat at 1 mg/kg administered as cassette dose. Type of data set: ADME, organism-based. Conditions: in vivo.
The nature of data set [4]: Kinetic solubility in PBS. Conditions: read-out: Kinetic_solubility. Type of data set: physicochemical.
Data set [5] can be described thus: Oral bioavailability in rat at 5 mg/kg administered as cassette dose. Conditions: in vivo. Type of data set: ADME, organism-based.

≈ marks a conversion by molar mass, not a printed value.

In general, logD refers to lipophilicity at a set pH, counting ionised and neutral species. Low values mean a more hydrophilic compound, high ones a more lipophilic compound. As for `CCC(c1ccc(Cl)c2nc3n(c12)CCCN3c1ccc(Cl)cc1Cl)n1ccnc1` (configuration not stated), in data set [1], the logD was 3.53.
Still for that read-out and setting: the figure for `CCC(=O)c1ccc(Cl)c2nc3n(c12)CCCN3c1ccc(Cl)cc1Cl` is 4.01.
Broadly, the solubility is the concentration that dissolves in the medium under given conditions. High values mean much dissolved substance, low ones little dissolved substance. Usually bioavailability stands for dose-corrected exposure relative to a reference, in per cent. The low end stands for poor availability, the high end for good availability. Turning to `CCN(CC)c1ccc(Cl)c2nc3n(c12)CCCN3c1ccc(Cl)cc1Cl`, the logD in data set [1] amounted to 5.25. Moreover, in data set [2], the solubility is less than 0.06 µg/mL. In addition, the bioavailability in data set [3] was determined as 4.1%.
`CCC(OC)c1ccc(Cl)c2nc3n(c12)CCCN3c1ccc(Cl)cc1Cl` (configuration not stated) had a logD in data set [1] of 4.38.
In data set [1], `CCC(C#N)c1ccc(Cl)c2nc3n(c12)CCCN3c1ccc(Cl)cc1Cl` (configuration not stated) registered a logD of 3.69.
As for `COc1nc(C)c(N2CCCn3c2nc2c(Cl)ccc([C@@H](OC(F)F)C(F)(F)F)c23)c(C)n1`, in data set [1], the logD turned out to be 3.18. In addition, the solubility kinetic in data set [4] was 55 µg/mL (≈ 112 µM). In data set [5], this compound displayed a bioavailability of 68%.
On to `CCC(O)c1ccc(Cl)c2nc3n(c12)CCCN3c1ccc(Cl)cc1Cl` (configuration not stated), for which the logD in data set [1] is 3.57.
Compound `COc1nc(C)nc(OC)c1N1CCCn2c1nc1c(Cl)ccc(C(OC(F)F)C(F)(F)F)c12` (racemic) yielded a logD in data set [1] of 3.71. The compound further came in with a solubility in data set [2] of 14 µg/mL (≈ 27.6 µM).
The like results for `CCc1nc(C)c(N2CCCn3c2nc2c(Cl)ccc(C(OC(F)F)C(F)(F)F)c23)c(C)n1` (racemic) were, in that order, 3.21 and 37 µg/mL (≈ 75.5 µM).
As for `COc1ccc(N2CCCn3c2nc2c(Cl)ccc(C(OC(F)F)C(F)(F)F)c23)c(C)n1` (racemic), the logD in data set [1] is 3.43. Also, in data set [2], the concentration in solution (solubility) came to 17 µg/mL (≈ 35.7 µM).
`COc1nc(C)c(N2CCCn3c2nc2c(Cl)ccc(C(OC(F)F)C(F)(F)F)c23)c(C)n1` (racemic): in data set [1], the logD came to 3.08. In data set [2], this compound yielded a solubility of 54 µg/mL (≈ 110 µM).
As to `Cc1nc(C)c(N2CCCn3c2nc2c(Cl)ccc(C(OC(F)F)C(F)(F)F)c23)c(C)n1` (racemic), the logD in data set [1] is 2.87. The compound further came in with a solubility in data set [2] of 71 µg/mL (≈ 149 µM).
The matching figures for `CCc1nc(C)nc(CC)c1N1CCCn2c1nc1c(Cl)ccc(C(OC(F)F)C(F)(F)F)c12` (racemic): 3.52 and 46 µg/mL (≈ 91.3 µM).
`FC(F)OC(c1ccc(Cl)c2nc3n(c12)CCCN3c1ccc(Cl)cc1Cl)C(F)(F)F` (racemic) registered a logD in data set [1] of 4.3. The compound also came in with a solubility in data set [2] of less than 0.09 µg/mL.
The like results for `COc1ccc(N2CCCn3c2nc2c(Cl)ccc(C(OC(F)F)C(F)(F)F)c23)c(C)c1` (racemic) were, in that order, 3.76 and 1.5 µg/mL (≈ 3.15 µM).
